Laboratory results from patent publication US20180369238A1, “DOPAMINE AGONISTS IN TREATING ALCOHOL USE DISORDERS ASSOCIATED WITH DOPAMINE RECEPTOR ACTIVITY” (MUSC Foundation for Research Development, priority 2017, published 2018).

Tests used:
[1] = tested on: AUD; details: multisite AUD clinical trial; cited from earlier work
[2] = tested on: non-treatment-seeking AUD individuals; test: Bar-lab paradigm (alcohol self-administration); assay type: in vivo, human; details: for Bar Lab Drinks: effect size of interaction medication x genotype permutation: n = 94
From the text: (§1) The study was an eight-day sub-acute dosing human laboratory investigation (ClinicalTrials.gov identifier: NCT01292057). After randomization to study medication, subjects underwent an fMRI alcohol cue-reactivity task on day 7 of medication ingestion and a bar-lab paradigm on day 8. To maximize cue-reactivity and motivation to drink, they were instructed to abstain from alcohol on the evenings of days 6 and 7.
(§2) Randomization and medication. […] Subjects and investigators were blind to both genotype and medication assignment. Thus, subjects were stratified by their baseline Barratt Impulsiveness Scale (BIS-11) score (Patton et al., 1995) into groups with BIS-11 scores greater vs. less than the median score of 68 and randomization was conducted separately within each stratum. Urn variables balanced across medication groups within each stratum were sex and smoking status.
Bar-lab paradigm. […] Thirty minutes later, they were provided a standard caloric lunch, adjusted for gender and weight. At 2:00 PM, subjects were administered a priming drink of their preferred 80-proof liquor in a 1:3 ratio with juice, adjusted for gender, age, and weight to produce a targeted BAC of 30 mg %, and instructed to consume it within five minutes. Forty minutes later, subjects were presented a tray of four drinks, each with a targeted BAC of 15 mg %, and told they could consume as many as they desired over the next hour. After an hour, this tray was removed and another tray of four drinks was made available for consumption over a second hour. To create a decisional balance between drinking and abstaining, subjects were given a “bar credit” of $16 with which to “purchase” drinks, at the cost of $2/drink. After the procedure, subjects were given dinner and remained until 10:00 PM. A BAC measurement below 20 mg % was required before departure, and a friend or taxi drove subjects home.
(§3) Statistical analysis. The general linear model (GLM; SPSS 23, IBM, Armonk, N.Y., United States of America) was used to test the interaction between medication and DAT1/SLC6A3 genotype on the primary outcomes (VS ALC vs. BEV activation and the number of drinks consumed in the bar lab). A model that included between-subjects factors for medication, DAT1/SLC6A3 genotype, and their interaction was tested for each outcome. Analyses first compared 9R carriers to 10R homozygotes, and subsequently examined the additive effect of the 9R allele. […] Significant interactions were followed up with simple effects contrasts. VS activation was also analyzed for correlation (Pearson's r) with day 7 OCDS scores and bar-lab drinking.
The GLM was also used to test the interaction between medication and a DA-related genetic composite on the primary outcomes. The DAT1/SLC6A3 9R, COMT met, DRD2 T, and DRD4 long alleles were categorized as higher-DA alleles, and the total number of alleles each subject carried was calculated (Table 2). Few subjects carried more than four higher-DA alleles (four subjects had five alleles and one had seven), so these subjects were combined with those who carried four, yielding five groups of subjects with zero (n=7), one (n=15), two (n=31), three (n=22), or four or more (n=18) alleles. A model that included between-subjects factors for medication, the additive effect of the number of higher-DA alleles, and their interaction was tested for each outcome.

[3] = tested on: non-treatment-seeking AUD individuals; test: fMRI alcohol cue-reactivity task (alcohol cue-elicited ventral striatal activation); assay type: in vivo, human; parameters: VS Activation: effect size of interaction medication x genotype permutation: scale not given here; details: for Alcohol cue-elicited VS activation (ALC vs. BEV percent signal change): APZ relative to placebo, day 7; for VS Activation: effect size of interaction medication x genotype permutation: n = 81
From the text: as §1, §2
Neuroimaging. On day 7, subjects were breathalyzed, assessed for alcohol withdrawal, and re-administered the OCDS. As noted above, one subject with a BAC>0 and two subjects with Clinical Institute Withdrawal Assessment for Alcohol-Revised scores >4 were excluded from scanning. After acquisition of a high-resolution anatomical image, subjects were given a sip (10 ml) of their preferred 80-proof liquor mixed with fruit juice and administered a 12-m-long task during which they passively viewed pseudo-randomly interspersed blocks of alcoholic beverage images (ALC; equally distributed between beer, wine, and liquor), nonalcoholic beverage images (BEV), blurred versions of these images that served as visual controls, and a fixation cross. Each 24-s-long block comprised only one image type and was followed by a 6-s period during which subjects were instructed to rate their urge for alcohol. Images were selected from a normative set, supplemented with images from advertisements, and matched for intensity, color, and complexity. This task consistently elicits robust cue-elicited VS activation among non-treatment-seeking AUD individuals.
Functional images were acquired with a gradient echo, echo-planar imaging sequence implemented on a 3T TIM Trio scanner (Siemens, Erlangen, Germany). Acquisition parameters were: repetition/echo times=2200/35 ms; 328 volumes; flip angle=90°; field of view=192 mm; matrix=64×64; voxel size=3.0×3.0 mm; 36 contiguous 3.0-mm-thick transverse slices. Using FEAT (fMRI Expert Analysis Tool) v. 6.00, part of FSL (FMRIB Software Library, University of Oxford, United Kingdom), functional images were realigned to the middle volume, spatially smoothed (8-mm full width at half maximum kernel), resampled to 2-mm isotropic voxels, and registered, first to the subject's high-resolution anatomical image and subsequently to the Montreal Neurological Institute (MNI; Montréal, Canada) 152-subject-average template. Based on previous data indicating an interaction between DAT1/SLC6A3 genotype and naltrexone on alcohol cue-elicited VS activation, the right VS was defined a priori as a 6-mm-radius sphere centered at the point [12 15 −6] in MNI space. For each subject, this sphere was reverse-registered from the MNI-152 image to the subject's anatomical image, and the average percentage change of the blood-oxygen-level-dependent signal between ALC and BEV blocks (i.e., ALC vs. BEV percent signal change) was extracted.
as §3, with “VS activation was also analyzed for correlation (Pearson's r) with day 7 OCDS scores and bar-lab drinking.” left out

[4] = tested on: non-treatment-seeking AUD individuals; test: Adverse effects, physical symptom checklist; assay type: in vivo, human; details: for Number of subjects with insomnia severity Mild / Number of subjects with insomnia severity Moderate / Number of subjects with insomnia severity None / Number of subjects with insomnia severity Severe: APZ group
From the text: Adverse effects. A physical symptom checklist was used to assess the presence and severity (self-rated as none, mild, moderate, or severe) of 21 possible adverse effects at baseline and on day 8 immediately before the bar-lab paradigm.
For the secondary outcome (adverse effect severity), the GLM was first used to evaluate the main effect of medication on the presence/absence of each effect. […] To account for the influence of these effects on the pharmacogenetic interactions evaluated above, the presence/absence of each was evaluated as a covariate in all models.

[5] = cited from earlier work
[6] = tested on: healthy adults; details: relative to placebo; healthy adults who carried more higher-DA alleles; cited from earlier work
[7] = 9R carriers vs. 10R homozygotes, APZ vs. placebo
[8] = DAT1 (additive effect of 9R alleles), APZ reduced more with more alleles
[9] = DAT1 (additive effect of 9R alleles), APZ reduced more with more alleles, listed as aripiprazole
[10] = DAT1 + COMT + DRD2 + DRD4 (higher-DA alleles composite)

O=C1CCc2ccc(OCCCCN3CCN(c4cccc(Cl)c4Cl)CC3)cc2N1 [APZ, aripiprazole]
Alcohol consumption biomarker [1]: significantly improve | Drinks per drinking day [1]: significantly improve | Primary drinking outcome (percent days abstinent) [1]: did not significantly change | Effect size (partial η2) of interaction medication x DAT1/SLC6A3 genotype on bar-lab drinking [2, 7]: 0.064 | Bar-lab drinking (number of drinks consumed) ([2]; APZ relative to placebo, DAT1/SLC6A3 9R carriers, day 8): reduced drinking | Effect size (partial η2) of main effect of medication on bar-lab drinking ([2]; APZ vs. placebo, all subjects): 0.049 | Bar Lab Drinks: effect size of interaction medication x genotype permutation [2, 8]: 0.068 | Bar Lab Drinks: effect size of interaction medication x genotype permutation [2, 9]: 0.050 | Bar Lab Drinks: effect size of interaction medication x genotype permutation [2, 10]: 0.069 | Bar Lab Drinks: effect size of interaction medication x genotype permutation ([2]; DAT1 + COMT + DRD2): 0.100 | Bar Lab Drinks: effect size of interaction medication x genotype permutation ([2]; DAT1 + COMT + DRD4): 0.071 | Bar Lab Drinks: effect size of interaction medication x genotype permutation ([2]; DAT1 + COMT): 0.079 | Bar Lab Drinks: effect size of interaction medication x genotype permutation ([2]; DAT1 + DRD2 + DRD4): 0.072 | Bar Lab Drinks: effect size of interaction medication x genotype permutation ([2]; DAT1 + DRD2): 0.081 | Bar Lab Drinks: effect size of interaction medication x genotype permutation ([2]; DAT1 + DRD4): 0.045 | Effect size (partial η2) of simple effect of medication on bar-lab drinking ([2]; among DAT1/SLC6A3 9R carriers, APZ vs. placebo): 0.12 | Effect size (partial η2) of simple effect of medication on bar-lab drinking ([2]; among subjects with four or more higher-DA alleles, APZ vs. placebo): 0.15 | Effect size (partial η2) of interaction medication x DAT1/SLC6A3 genotype on VS activation [3, 7]: 0.061 | Alcohol cue-elicited VS activation (ALC vs. BEV percent signal change) ([3]; DAT1/SLC6A3 9R carriers): reduced VS activation | Alcohol cue-elicited VS activation (ALC vs. BEV percent signal change) ([3]; DAT1/SLC6A3 10R homozygotes): increased it | VS Activation: effect size of interaction medication x genotype permutation [3, 8]: 0.067 | VS Activation: effect size of interaction medication x genotype permutation [3, 9]: 0.063 | VS Activation: effect size of interaction medication x genotype permutation [3, 10]: 0.051 | VS Activation: effect size of interaction medication x genotype permutation ([3]; DAT1 + COMT + DRD2): 0.026 | VS Activation: effect size of interaction medication x genotype permutation ([3]; DAT1 + DRD2 + DRD4): 0.084 | VS Activation: effect size of interaction medication x genotype permutation ([3]; DAT1 + DRD2): 0.068 | VS Activation: effect size of interaction medication x genotype permutation ([3]; DAT1 + DRD4): 0.077 | Number of subjects with insomnia severity Mild ([4]; 9R carriers): 11 | Number of subjects with insomnia severity Moderate ([4]; 9R carriers): 6 | Number of subjects with insomnia severity None ([4]; 9R carriers): 11 | Number of subjects with insomnia severity Severe ([4]; 9R carriers): 0 | Number of subjects with insomnia severity Mild ([4]; 10R homozygotes): 8 | Number of subjects with insomnia severity Moderate ([4]; 10R homozygotes): 4 | Number of subjects with insomnia severity None ([4]; 10R homozygotes): 2 | Number of subjects with insomnia severity Severe ([4]; 10R homozygotes): 4 | Frequency of insomnia, daytime sleepiness, irritability, trouble concentrating, nausea/vomiting, dizziness, fatigue, blurry vision, difficulty reaching orgasm ([4]; APZ group vs. placebo, p<0.05, day 8): significantly more frequent | Insomnia severity ([4]; APZ relative to placebo, DAT1/SLC6A3 9R carriers): did not | Insomnia severity ([4]; APZ relative to placebo, DAT1/SLC6A3 10R homozygotes): more severe insomnia | Insomnia severity ([4]; among subjects who received APZ, with a greater number of higher-DA alleles): less severe | Euphoric effects of alcohol drinking ([5]; natural environment or bar-lab setting): reduce | Alcohol cue-elicited VS activation ([5]; reported earlier): reduce

CCCN(CCC)CCc1cccc2c1CC(=O)N2 [ropinirole]
Impulsive decisions [6]: increased impulsive decisions
